Assay results published in patent US8937091B2 (Japan Science and Technology Agency, priority 2009, dated 2015).

How the values were obtained:
[1] = system: SOCE (store operated calcium entry) in CHO cells; test: Assay of SOCE (store operated calcium entry)-inhibiting action; type: cell-based, Chinese hamster; settings: Cricetulus griseus, CHO, CHO cells, thapsigargin, read-out: SOCE level (percentage of inhibition); for inhibition at 10 µM: test compound 10 μmol; for inhibition at 30 µM: test compound 30 μmol; for inhibition at 100 µM: test compound 100 μmol
How it was run: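 CHO cells in calcium-free BSS received compound, then 1 μM thapsigargin 2 min later to deplete stores; after 9 min, 2 mM calcium chloride (final) added. Percent inhibition of the rise in intracellular calcium determined at various compound concentrations.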

[2] = system: IICR (IP3 induced calcium release) in CHO cells; test: Assay of IICR (IP3 induced calcium release)-inhibiting action; type: cell-based, Chinese hamster; settings: Cricetulus griseus, CHO, CHO cells, 10 μM ATP, read-out: IICR level (percentage of inhibition); for inhibition at 10 µM: test compound 10 μmol; for inhibition at 30 µM: test compound 30 μmol; for inhibition at 100 µM: test compound 100 μmol
How it was run: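 Inhibition (%) of the intracellular calcium increase triggered by 10 μM ATP, measured in CHO cells in BSS with calcium. Compound given 1 min after the buffer exchange and 2 min before ATP; values reported per compound concentration.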

| SMILES | inhibition at 10 µM [1] | inhibition at 30 µM [1] | inhibition at 100 µM [1] | inhibition at 10 µM [2] | inhibition at 30 µM [2] | inhibition at 100 µM [2] |
| --- | --- | --- | --- | --- | --- | --- |
| O=C(CCNCCS)c1ccc(Br)s1 [Example 335, 2-(N-mercaptoethyl)aminoethyl-5-bromo-2-thienylketone] | 20% | 30% | 50% | 10% | 50% | 70% |
| O=C(CCNc1ccccc1O)c1ccc(Br)s1 [Example 336, 2-(N-hydroxyphenyl)aminoethyl-5-bromo-2-thienylketone] | 10% | 0% | 0% | 20% | 10% | 60% |
| CCCCN(CCC(=O)c1ccc(Br)s1)c1ccccc1 [Example 337, 2-(N-phenyl-N-n-butyl)aminoethyl-5-bromo-2-thienylketone] | 20% | 30% | 40% | 50% | 20% | 0% |
| CCCCN(CCCC)CCC(=O)c1ccc(Br)s1 [Example 338, 2-(N,N-di-n-butyl)aminoethyl-5-bromo-2-thienylketone] | 0% | 0% | 24% | 50% | 50% | 60% |
| CCC(C)N(CCC(=O)c1ccc(Br)s1)C(C)CC (stereo not drawn) [Example 339, 2-(N,N-di-sec-butyl)aminoethyl-5-bromo-2-thienylketone] | 0% | 8% | 61% | 50% | 80% | 60% |
| O=C(CCNC(CO)c1ccccc1)c1ccc(Br)s1 (stereo not drawn) [Example 342, 2-(N-1-phenyl-2-hydroxyethyl)aminoethyl-5-bromo-2-thienylketone] | 0% | 0% | 34% | 0% | 20% | 40% |
| NCC(O)CNCCC(=O)c1ccc(Br)s1 (stereo not drawn) [Example 343, 2-(N-2-hydroxy-3-aminopropyl)aminoethyl-5-bromo-2-thienylketone] | 0% | 0% | 26% | 50% | 70% | 80% |
| NCCCCN(CCCN)CCC(=O)c1ccc(Br)s1 [Example 344, 2-(N-4-aminobutyl-N-3-aminopropyl)aminoethyl-5-bromo-2-thienylketone] | 0% | 2% | 6% | 10% | 40% | 30% |
| O=C(CCN1CCCC1O)c1ccc(Br)s1 (stereo not drawn) [Example 345, 2-(N-2-hydroxypyrrolidino)aminoethyl-5-bromo-2-thienylketone] | 0% | 0% | 10% | 0% | 20% | 70% |
| O=C(CCNc1ccccc1S)c1ccc(Br)s1 [Example 347, 2-(N-2-mercaptophenyl)aminoethyl-5-bromo-2-thienylketone] | 0% | 0% | 0% | 0% | 20% | 50% |
| O=C(CCN1CCCCC1)c1ccc(Br)s1 [Example 348, 2-piperidinoethyl-5-bromo-2-thienylketone] | 0% | 0% | 16% | 20% | 0% | 20% |
| O=C(CCNCC(O)c1ccccc1)c1ccc(Br)s1 (stereo not drawn) [Example 349, 2-(2-hydroxy-2-phenylethyl)aminoethyl-5-bromo-2-thienylketone] | 46% | 0% | 0% | 20% | 0% | 50% |
